Test results published in patent US6713051B2, “Antiperspirant or deodorant compositions” (Unilever Home & Personal Care USA division of Conopco, Inc., priority 2001, dated 2004).

Experiments:
[1] = system: Human foreskin keratinocytes; experiment: Keratinocyte proliferation analysis (DNA content per well, Pico Green); type: cell-based; settings: for DNA: 4 days, control (0 μM) 92.17
Experimental: (§1) Human foreskin keratinocytes (passage 3) were seeded at 4000 cells/well in 96 well plates in Keratinocyte Growth Medium (abbreviated to KGM) containing 0.03 mM calcium and grown for 3 days at 37° C. The cells were then treated with PPAR ligands in KGM containing 0.03 mM calcium for 4 days prior to harvest. Stock solutions of PPAR ligands were dissolved in dimethylsulphoxide (DMSO) and diluted in KGM before adding to the cells. […] The harvested cells were washed 3× in phosphate buffered saline (PBS) and extracted in 1% Triton X100, 50 mM (tris[hydroxymethyl]aminomethane) (Tris) pH 8.0 plus protease inhibitors pepstatin and leupeptin (100 μl/well). The extract was assayed for DNA content using the Pico Green DNA assay (Molecular Probes, Inc.).
Cultured keratinocytes were treated with cis-9-trans-11 conjugated linoleic acid (CT-CLA) for 4 days. The cells were extracted with Tris-1% Triton X100 and the DNA content per well was determine by the Pico Green assay in accordance with the above described procedure.

[2] = system: Transglutaminase (TGase); experiment: Keratinocyte transglutaminase (TGase) assay; type: cell-based, human; settings: for TGase/ng DNA: 4 days, 30 μM Ca2+, control (0 μM) 16.82
Experimental: as §1
The remaining cell debris attached to the 96 well plate was incubated with 70 μl/well of TGase assay buffer (50 mM Tris™ pH 8.0, 5 mM DTT, 50 mM CaCl2, 150 mM NaCl, 15 μM Texas Red Cadaverine) and incubated for 16 hours at 37° C. The plates were then washed with distilled water (×2) and the fluorescence due to cross-linked Texas Red cadaverine was determined using excitation at 590 nm and emission of 645 nm.
Cultured keratinocytes were treated with cis-9-trans-11-conjugated linoleic acid (CT-CLA) for 4 days. The cells were extracted with Tris-1% Triton X100™ and the non-extractable TGase activity associated with the cells was determined using Texas Red Cadaverine (in accordance with the methods described above).

[3] = molecular target: T1, human PPARα (Homo sapiens, UniProt Q07869); experiment: PPARα reporter gene assay (firefly luciferase, transiently transfected Cos-7 cells); type: cell-based; settings: for Result (superior activity class achieved): class reached; for Pass at (lowest tested administration level at which the test material passed): pass = activation greater than oleic acid at 100 μM, commonly >1.57 times vehicle control, 24 h treatment
T1 construct: The coding region of a human PPARα cDNA was inserted downstream of the CMV promoter; expressed in transfected cells; host or cells: Cos-7 cells, transient transfection (pcDNA3.1(−)-PPARα, pRSV-RXRα, 3xPPRE-TK-luc reporter, pRL-TK)
T1 sequence (Q07869 1-468): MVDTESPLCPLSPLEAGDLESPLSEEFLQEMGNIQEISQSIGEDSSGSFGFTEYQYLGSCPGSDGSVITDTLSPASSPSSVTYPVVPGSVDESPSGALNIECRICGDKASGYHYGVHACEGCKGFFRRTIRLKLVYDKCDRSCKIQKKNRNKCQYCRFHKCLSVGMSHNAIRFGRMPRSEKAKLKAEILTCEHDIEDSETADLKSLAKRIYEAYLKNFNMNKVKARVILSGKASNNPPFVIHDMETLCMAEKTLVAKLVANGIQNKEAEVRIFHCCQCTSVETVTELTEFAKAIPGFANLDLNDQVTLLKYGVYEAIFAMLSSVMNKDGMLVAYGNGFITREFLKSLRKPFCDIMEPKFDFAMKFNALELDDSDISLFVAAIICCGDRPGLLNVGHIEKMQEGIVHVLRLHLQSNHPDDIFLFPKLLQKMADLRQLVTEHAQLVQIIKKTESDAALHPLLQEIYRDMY
T1 sequence (P19793 1-462 partner): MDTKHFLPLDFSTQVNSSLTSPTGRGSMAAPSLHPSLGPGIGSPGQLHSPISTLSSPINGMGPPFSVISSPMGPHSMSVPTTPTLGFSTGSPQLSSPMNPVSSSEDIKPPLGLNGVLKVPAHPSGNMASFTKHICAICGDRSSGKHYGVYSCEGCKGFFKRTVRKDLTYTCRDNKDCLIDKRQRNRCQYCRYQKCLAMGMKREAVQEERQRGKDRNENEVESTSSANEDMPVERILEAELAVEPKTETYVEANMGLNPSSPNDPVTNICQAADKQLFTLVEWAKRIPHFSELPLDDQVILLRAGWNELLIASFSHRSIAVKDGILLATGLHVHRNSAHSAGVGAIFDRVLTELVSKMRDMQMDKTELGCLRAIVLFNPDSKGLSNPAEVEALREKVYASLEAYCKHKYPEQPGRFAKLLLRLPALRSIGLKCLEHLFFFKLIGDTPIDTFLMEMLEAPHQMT
Source text: One convenient reporter assay for determining whether a fatty acid material is PPARα activating is based upon the firefly luciferase gene.
Fatty acids were screened to identify PPAR activating fatty acids using a reporter assay.
This assay relied on ligands binding to and activating the PPARα protein, which, in turn, activated genes under the control of PPAR response elements (PPRE). In the assay, the firefly luciferase gene was cloned behind a promoter containing 3 copies of the fatty acid binding protein PPRE.
The assay was performed by transient transfection of Cos-7 cells with a mixture of four DNA plasmids. These were:
1) PPAR reporter gene construct (Modified pNF-KB-luc reporter vector (Firefly luciferase reporter vector commercially available form Clontech (NF-kB response element, TK minimal promoter, luc^+, f1 origin, pUC origin, amp^r)). A tandem repeat of 3 PPAR response elements (PPREs) corresponding to the PPRE found in the fatty acid binding protein promoter was inserted upstream of the minimal TK promoter to replace the NF-κB response element);
2) 2) Over-expressing PPARα construct (Modified pcDNA3.1(−) vector (A mammalian expression vector commercially available from Invitrogen (CMV promoter, f1 origin, SV40 origin, ColE1 origin, neo^r, amp^r)). The coding region of a human PPARα cDNA was inserted downstream of the CMV promoter of pcDNA3.1 (−)). […] The coding region of a human RXRα cDNA has been inserted downstream of the RSV promoter. (Gift of V. K. K. Chatterjee, Addenbrooke's Hospital, Cambridge)) 4) Control luciferase construct (pRL-TK Renilla luciferase reporter vector commercially available from Promega (HSV-TK promoter, T7 promoter, Rluc^+, ori, amp^r)). For the transfection, DNA was made up as a mix of PPAR reporter gene: PPARα: RXRα: control in the ratio 40:4:3:3.
Cos-7 cells were grown in Dulbecco's modified Eagle's Medium, also herein referred to as DMEM with 10% foetal calf serum, herein also referred to as FCS at 37° C., 5% CO2 to 80% confluency. Cells were then plated out in 24 well plates at 50,000 cells per well and incubated overnight in DMEM with 10% FCS at 37° C., 5% CO2. Cells were then transfected using the LipofectAMINE reagent (GibcoBRL). For each well 0.4 μg of DNA mix (in 25 μl of DMEM) was incubated with 1 μl LipofectAMINE (in 25 μl of DMEM) for 45 minutes. The mixture was then made up to 250 μl per well and added to the cells, which had been washed with 1 ml of DMEM. Cells were then incubated for 5 hours at 37° C., 5% CO2 and 250 μl DMEM with 10% SBCS (charcoal stripped bovine calf serum) added. Cells were incubated for 18 hours at 37° C., 5% CO2 before being treated with the appropriate compound/extract. Test compounds were made up as 1000× stocks (in DMSO or ethanol as appropriate) and diluted into DMEM with 10% SBCS (500 μl per well) immediately before being added to cells. Each treatment was performed in triplicate. The transfection mix was removed from the cells and replaced with the treatment mix, and incubated for 24 hours at 37° C., 5% CO2. Cells were washed with 1 ml of PBS (without calcium or magnesium) and then lysed with 100 μl per well of 1× Passive Lysis Buffer (as supplied with Promega Dual Luciferase assay kit). Lysis was allowed to continue for 15 minutes and then the lysate was assayed for Firefly and Renilla luciferase activity using the Promega Dual Luciferase assay kit. For the assay, 20 μl of lysate was taken and assayed as described in the kit instructions using a MLX microtiter™ plate luminometer (Dynex).
Firefly luciferase activity (PPAR driven) was normalised against the Renilla luciferase value for that well and the mean calculated for the three wells treated with the same agent. Activity was then expressed as fold activation over the vehicle (DMSO or ethanol) control values for that particular plate.

[4] = system: interleukin-6 (IL-6); experiment: Skin organotypic culture analysis: AP-induced IL-6 release into the medium; type: cell-based; settings: 500 μM in medium, AP formulation topical, 24 h; Dunnet's test p<0.05
Experimental: (§2) The cultures were then incubated at 37° C., 5% CO2, and 95% relative humidity (standard cell culture conditions) for 24 h. The culture medium was assayed for the pro-inflammatory cytokine interleukin-6 (IL-6) and after washing to remove the AP formulation, the viability of the culture was determined using the Thiazoyl blue (MTT) assay (Mosmann, T. J. Immunol. Methods 65, p55 (1983). IL-6 was determined using an Immunoassay (Quantikine, R&D systems).
(§3) In this Example, skin organotypic cultures (Epiderm™, MatTek, USA) were treated topically with the above-identified AP formulation and the trans-10-cis-12 conjugated linoleic acid (TC CLA) was introduced into the medium. The cultures were then incubated at 37° C., 5% CO2, and 95% relative humidity (standard cell culture conditions) for 24 h. The culture medium was assayed for the pro-inflammatory cytokine interleukin-6 (IL-6) and after washing to remove the AP formulation, the viability of the culture was determined by the method described in Example 2.
as §2, with “hours.” for “h.”, “MTT assay.” for “Thiazoyl blue (MTT) assay (Mosmann, T. J. Immunol. Methods 65, p55 (1983).”, “ELISA assay (R&D” for “Immunoassay (Quantikine, R&D”

[5] = system: skin organotypic cultures (Epiderm); experiment: Viability of skin organotypic cultures (MTT assay); type: cell-based
Experimental: as §2, §3
as §2, with “hours.” for “h.”, “MTT assay.” for “Thiazoyl blue (MTT) assay (Mosmann, T. J. Immunol. Methods 65, p55 (1983).”, “ELISA assay (R&D” for “Immunoassay (Quantikine, R&D”

[6] = system: volunteers (volar forearm); experiment: Human patch test irritation analysis; type: in vivo; settings: 0.25% incorporated into the formulation; Wilcoxon signed rank test, 5% level
Experimental: Patch tests were performed on mixed panel of 50 volunteers with age ranges between 18 and 55, using a double-blinded protocol with randomised patch sites. Samples (20 mg) were applied to a filter paper that was placed within a Finn™ chamber (0.8 cm internal diameter). The chambers were then attached to the volar forearm using Scanpore™ tape (Norgesplater, Nor.) and left for 47 h.

Row | TGase/ng DNA ([2]; 0.1 μM) | TGase/ng DNA ([2]; 1 μM) | TGase/ng DNA ([2]; 10 μM) | keratinocyte TGase activity, statement ([2]; 1 way ANOVA, p<0.05) | Compound | keratinocyte DNA synthesis activity, statement ([1]; Example 10: 10 μM, 1 way ANOVA, p<0.05) | DNA ([1]; Table 11: 0.1 μM) | DNA ([1]; Table 11: 1 μM) | DNA ([1]; Table 11: 10 μM) | Result at (lowest administration level at which super or MS activity was achieved) [3] | Result (superior activity class achieved) [3] | Pass at (lowest tested administration level at which the test material passed) [3] | AP-induced IL-6 release [4] | Culture viability ([5]; Example 2: AP formulation alone vs AP formulation and petroselinic acid) | Culture viability ([5]; Example 4: AP treatment alone vs AP and acid treatment) | mitigation of irritation induced by the prototype pump spray [6]
1 | 18.30 | 18.46 | 28.07 | significantly increase | CCCCCC/C=C/C=C\CCCCCCCC(=O)O [CLA (c9, t11), cis-9-trans-11 conjugated linoleic acid] | significantly reduce | 81.83 ng/well | 81.33 ng/well | 59.50 ng/well | 25 μm | super (superior activity [super] (50% higher—at least 2.25 times PPARα activation)) | 10 μm | – | – | – | –
2 | – | – | – | – | CCCCCCCCCCC/C=C\CCCCC(=O)O [Petroselinic acid, petroselinic acid] | – | – | – | – | 100 μm | MS (more superior activity [MS] (100% higher—at least 3 times PPARα activation)) | 10 μm | significantly decrease | not significantly different | not significantly different | significantly mitigated
